A short description of experiment [1]: Enhancement of BMP-2 expression in mouse MC3T3-E1 cells assessed as upregulation rate at 4 uM. In kind it is functional, cell-based.
Experiment [2] relates to Rattus norvegicus. Put plainly: Antiosteoporotic activity in ovariectomized Sprague-Dawley rat assessed as trabecula resorption surface at 5 mg/kg/day, po for 90 days by bone histomorphometry. It counts as functional.
Experiment [3] has as its system Rattus norvegicus. Put plainly: Antiosteoporotic activity in ovariectomized Sprague-Dawley rat assessed as trabecula formation surface at 5 mg/kg/day, po for 90 days by bone histomorphometry. In kind it is functional.
Experiment [4] concerns Rattus norvegicus. Kind of experiment: Antiosteoporotic activity in ovariectomized Sprague-Dawley rat assessed as mineral apposition rate at 5 mg/kg/day, po for 90 days by bone histomorphometry. In kind it is functional.
For experiment [5], the system named is Rattus norvegicus. Put plainly: Antiosteoporotic activity in ovariectomized Sprague-Dawley rat assessed as osteo cortex mineralization rate at 5 mg/kg/day, po for 90 days by bone histomorphometry. It counts as functional.
The test system of experiment [6] is Rattus norvegicus. Put plainly: Antiosteoporotic activity in ovariectomized Sprague-Dawley rat assessed as average osteoid width at 5 mg/kg/day, po for 90 days by bone histomorphometry. It counts as functional.
Experiment [7] concerns Rattus norvegicus. Kind of experiment: Antiosteoporotic activity in ovariectomized Sprague-Dawley rat assessed as trabecular bone volume at 5 mg/kg/day, po for 90 days by bone histomorphometry. In kind it is functional, Trabecula.
The nature of experiment [8]: Enhancement of BMP-2 expression in mouse MC3T3-E1 cells assessed as upregulation rate at 0.4 uM. In kind it is functional, cell-based.
Experiment [9] has as its system Rattus norvegicus. Put plainly: Antiosteoporotic activity in ovariectomized Sprague-Dawley rat assessed as trabecula resorption surface at 10 mg/kg/day, po for 90 days by bone histomorphometry. It counts as functional.
In experiment [10] the test system is Rattus norvegicus. Kind of experiment: Antiosteoporotic activity in ovariectomized Sprague-Dawley rat assessed as trabecula resorption surface at 20 mg/kg/day, po for 90 days by bone histomorphometry. In kind it is functional.
Experiment [11] deals with Rattus norvegicus. Put plainly: Antiosteoporotic activity in ovariectomized Sprague-Dawley rat assessed as trabecula resorption surface at 40 mg/kg/day, po for 90 days by bone histomorphometry. It counts as functional.
Experiment [12] concerns Rattus norvegicus. Kind of experiment: Antiosteoporotic activity in ovariectomized Sprague-Dawley rat assessed as trabecula formation surface at 10 mg/kg/day, po for 90 days by bone histomorphometry. In kind it is functional.
Experiment [13] concerns Rattus norvegicus. Kind of experiment: Antiosteoporotic activity in ovariectomized Sprague-Dawley rat assessed as trabecula formation surface at 20 mg/kg/day, po for 90 days by bone histomorphometry. In kind it is functional.
The test system of experiment [14] is Rattus norvegicus. Put plainly: Antiosteoporotic activity in ovariectomized Sprague-Dawley rat assessed as trabecula formation surface at 40 mg/kg/day, po for 90 days by bone histomorphometry. It counts as functional.
In experiment [15] the test system is Rattus norvegicus. Kind of experiment: Antiosteoporotic activity in ovariectomized Sprague-Dawley rat assessed as mineral apposition rate at 10 mg/kg/day, po for 90 days by bone histomorphometry. It counts as functional.
In experiment [16] the test system is Rattus norvegicus. Kind of experiment: Antiosteoporotic activity in ovariectomized Sprague-Dawley rat assessed as mineral apposition rate at 20 mg/kg/day, po for 90 days by bone histomorphometry. It counts as functional.
For experiment [17], the system named is Rattus norvegicus. Put plainly: Antiosteoporotic activity in ovariectomized Sprague-Dawley rat assessed as mineral apposition rate at 40 mg/kg/day, po for 90 days by bone histomorphometry. In kind it is functional.
Experiment [18] concerns Rattus norvegicus. Kind of experiment: Antiosteoporotic activity in ovariectomized Sprague-Dawley rat assessed as osteo cortex mineralization rate at 10 mg/kg/day, po for 90 days by bone histomorphometry. It counts as functional.
In experiment [19] the test system is Rattus norvegicus. Put plainly: Antiosteoporotic activity in ovariectomized Sprague-Dawley rat assessed as osteo cortex mineralization rate at 20 mg/kg/day, po for 90 days by bone histomorphometry. It counts as functional.
Experiment [20] deals with Rattus norvegicus. Kind of experiment: Antiosteoporotic activity in ovariectomized Sprague-Dawley rat assessed as osteo cortex mineralization rate at 40 mg/kg/day, po for 90 days by bone histomorphometry. It counts as functional.
Experiment [21] concerns Rattus norvegicus. Kind of experiment: Antiosteoporotic activity in ovariectomized Sprague-Dawley rat assessed as average osteoid width at 10 mg/kg/day, po for 90 days by bone histomorphometry. It counts as functional.
Experiment [22] has as its system Rattus norvegicus. Kind of experiment: Antiosteoporotic activity in ovariectomized Sprague-Dawley rat assessed as average osteoid width at 20 mg/kg/day, po for 90 days by bone histomorphometry. In kind it is functional.
In experiment [23] the test system is Rattus norvegicus. Kind of experiment: Antiosteoporotic activity in ovariectomized Sprague-Dawley rat assessed as average osteoid width at 40 mg/kg/day, po for 90 days by bone histomorphometry. In kind it is functional.
The test system of experiment [24] is Rattus norvegicus. Put plainly: Antiosteoporotic activity in ovariectomized Sprague-Dawley rat assessed as trabecular bone volume at 10 mg/kg/day, po for 90 days by bone histomorphometry. It counts as functional, Trabecula.
Experiment [25] concerns Rattus norvegicus. Put plainly: Antiosteoporotic activity in ovariectomized Sprague-Dawley rat assessed as trabecular bone volume at 20 mg/kg/day, po for 90 days by bone histomorphometry. It counts as functional, Trabecula.
Experiment [26] has as its system Rattus norvegicus. Put plainly: Antiosteoporotic activity in ovariectomized Sprague-Dawley rat assessed as trabecular bone volume at 40 mg/kg/day, po for 90 days by bone histomorphometry. In kind it is functional, Trabecula.

As to `COC(=O)c1cc2ccccc2s1`, the Activity in experiment [1] was found to be 27.3%.
With `O=C(c1ccc(OCCN2CCCCC2)cc1)c1c(-c2ccc(O)cc2)sc2cc(O)ccc12` [RALOXIFENE], the Activity in experiment [2] was determined as 3.34%; in experiment [3] it was 6.52%; in experiment [4], 2.14 µm/day; in [5], 3.15 µm/day; in [6] it was 11.1 µm; in [7], 22.31%.
Consider `CC(=O)c1cc2c(Cl)ccc(C)c2s1`, for which the Activity in experiment [1] is 32%.
With `CC(=O)c1c[nH]c2ccccc12`, the Activity in [1] came out at 22.8%.
Same read-out and setting: to `CC(=O)c1sc2ccc(C(F)(F)F)cc2c1C` belongs 16.7%.
Turning to `CC[C@H](C)C(=O)O[C@H]1C[C@@H](C)C=C2C=C[C@H](C)[C@H](CC[C@@H]3C[C@@H](O)CC(=O)O3)[C@H]21`, in [8], the Activity came out at 20.9%.
With `COc1cc2cc(C(C)=O)sc2cc1OC`, the Activity in experiment [1] stood at 37.1%.
Take `CC(=O)c1cc2c(Cl)cccc2s1`: the Activity in experiment [1] turned out to be 27.9%.
Regarding `O=C(O)c1cc2ccccc2s1`, the Activity in experiment [1] came out at 10.8%.
On the same count and under the same terms, to `CC(=O)c1cc2cccc(C(F)(F)F)c2s1` belongs 30.2%; to `CC(=O)c1sc2ccc(C)c(Cl)c2c1C`, 6.5%; to `CC(=O)c1csc2ccccc12`, 11.9%.
`NNC(=O)c1cc2ccccc2s1`: in experiment [1], the Activity worked out at 7.8%.
The same measure, in the same setting: the figure for `NC(=O)c1cc2ccccc2s1` is 11.2%; for `CC(=O)c1cc2cc(C(F)(F)F)ccc2s1` it is 18.5%; for `CC(=O)c1sc2ccccc2c1C` it is 28%.
As for `CC(=O)c1cc2ccccc2o1`, the Activity in experiment [9] was 7.84%; in experiment [10], 7.15%; in experiment [11], 5.3%; in [12], 7.26%; in experiment [13] it was 6.75%; in experiment [14] it was 6.74%. Further, the Activity in experiment [15] came to 2.31 µm/day; in experiment [16], 2.34 µm/day; in [17] it was 2.2 µm/day; in experiment [18] it was 3.28 µm/day; in [19], 3.51 µm/day; in [20], 3.3 µm/day. For the same compound, the Activity is 11.2 µm in experiment [21]; 11.6 µm in [22]; 11 µm in experiment [23]; 33.5% in experiment [1]; 12.39% in experiment [24]; 13.13% in experiment [25]. Moreover, in experiment [26], the Activity was 17.5%.
On to `CC(=O)c1sc2cccc(Cl)c2c1C`, for which, in experiment [1], the Activity was determined as 16.5%.
Still for that read-out and setting: the figure for `CC(=O)c1cc2c(Cl)c(C)ccc2s1` is 39.8%.

The values above are taken from ChEMBL document CHEMBL1153043, “Synthesis and evaluation of 1-(benzo[b]thiophen-2-yl)ethanone analogues as novel anti-osteoporosis agents acting on BMP-2 promotor” (Bioorg Med Chem Lett, 2009).
